From a melting point compilation (Tetko et al.; mined from patent text by program, amines drawn as free bases though some values may be those of a salt)

| SMILES | melting point |
| --- | --- |
| O=C(CCl)N1CCC(Cc2ccc(F)cc2)CC1 | 85 to 87 °C |
| CC(=O)COc1cc2oc(=O)cc(C)c2cc1C | 190 °C |
| COC(=O)c1ccc(C(F)(F)F)nc1S(=O)(=O)NC(=O)Nc1nc(OC)cc(OC)n1 | 130 to 137 °C |
| Cn1nnnc1NCC(O)COc1cccc(CN2CCCCC2)c1 (stereo unspecified) | 156 to 157 °C |
| C=CCOc1cc(-c2ncnc(C(F)F)c2Cl)c(F)cc1Cl | 69 to 71 °C |
| CCc1cc(CCCOc2c(C)cc(-c3noc(C)n3)cc2C)on1 | 85 to 86 °C |
| Cc1cnc(Br)c(C#N)c1 | 109 to 111 °C |
| CCOC(=O)C(=O)Nc1ccc2cccc([N+](=O)[O-])c2c1[N+](=O)[O-] | 233 °C |
| C=C1CC(c2ccc(C)c(C)c2)N(C)C1=O (stereo unspecified) | 180 to 184 °C |
| CCOC(=O)C(=NO)C(=O)Nc1ccc(Cl)cc1C(=O)c1ccccc1 | 98 to 105 °C |
| CC1CN(C)c2c(Cl)ccc3c(=O)c(C(=O)O)cn1c23 (stereo unspecified) | 243 to 245 °C |
| CS(=O)c1c(Br)nn(-c2c(Cl)cc(C(F)(F)F)cc2Cl)c1N (stereo unspecified) | 135 to 136 °C |
| Cc1cc(-c2cc3c(cc2C)OC(C)(C)C=C3)ccn1 | 212 to 214 °C |
| COC(=O)c1cc(Cl)cc(OC)c1O | 105 °C |
| CC(=O)N[C@H]1CCC(=O)N2CCC[C@@H](C(=O)O)N2C1=O | > 250 °C |
| O=C(O)CCc1c(C(=O)O)[nH]c2cc(Br)cc(Br)c12 | 259 °C |
| COc1cc2c(cc1O)CCC1C2CCC2(C)C1CCC21OCCO1 (stereo unspecified) | 150 to 151 °C |
| COc1cc(OC)nc(Oc2cccnc2C(=O)O)n1 | 120 to 121 °C |
| CC1=NS(=O)(=O)N(C)C(Oc2cccnc2)=N1 | 137 to 138 °C |
| O=C(O)CCCC=C1CCCCCCCCCCC1 | 70 to 72 °C |
| CC(C)(C)OC(=O)CNC1Cc2ccccc2C1 | 54 to 55 °C |
| COCCc1ccc(OCC(O)C(C)(C)[N+](=O)[O-])cc1 (stereo unspecified) | 92 to 94 °C |
| CCOc1ccc(C(OC(C)=O)c2sccc2C=O)cc1OCC (stereo unspecified) | 68 °C |
| O=C(NC1CCCC1)n1cc(F)c(=O)[nH]c1=O | 137 °C |
| CC(C)Nc1cccnc1N1CCN(C(=O)c2ccc(C(=O)NCCCn3ccnc3)cn2)CC1 | 105 to 108 °C |

Now from value to molecule:

| melting point | SMILES |
| --- | --- |
| 141 to 143 °C | CCOc1cc(C(=CC#N)c2ccc(OC)c([N+](=O)[O-])c2)ccc1OC |
| 168 to 170 °C | CCN(C(=O)C(C)(C)C)c1cccc(-c2ccc3nnc(C)n3n2)c1 |
| 116 to 120 °C | Cc1cn(S(=O)(=O)c2ccccc2)c2ccccc12 |
| 123 to 160 °C | CC(C)C[C@H](NC(=O)[C@H](Cc1ccccc1)NCC(S)C(N)Cc1ccccc1)C(=O)O (stereo partly specified) |
| 62 to 63.8 °C | CC(C)C[C@H](NC(=S)Nc1ccccc1)C(=O)N[C@H]1CCOC1O (stereo partly specified) |
| 93.9 °C | Nc1ccc2c(c1)COc1cc(Nc3ccc(C(F)(F)F)cc3N)ccc1C2=O |
| 128 to 130 °C | O=C1C(c2ccc(O)cc2)=C(c2ccccc2)c2cc(O)cc(O)c21 |
| 88 to 90 °C | COc1ccc(/C=C/C(=O)C2C(=O)CC(c3ccc(OC)cc3)C([N+](=O)[O-])C2C=Cc2ccccc2)cc1 (stereo unspecified) |
| 211 °C | CC(C)(C)OC(=O)N1CCC(OCc2ccccc2)C1CC(=O)Cn1cnc2ccc(F)c(F)c2c1=O (stereo unspecified) |
| 230 to 233 °C | CC(=O)c1csc(C(=O)C2C(=O)N(C(N)=O)c3ccc(Cl)cc32)c1 (stereo unspecified) |
| 110 to 112 °C | CCOC(=O)/C=C/c1ccc2cc(OCc3ccccc3)ccc2c1 |
| > 300 °C | Clc1ccc(-c2cnn3cnnc3n2)cc1 |
| 228 to 230 °C | Nc1cc(C(=O)Cn2c(-c3nonc3N)nc3ccccc32)ccc1Cl |
| > 300 °C | O=C1C2=C(c3ccccc3)N(c3ccccc3)C(=O)C2=C(c2ccccc2)N1c1ccccc1 |
| 172 °C | O=C1c2ccccc2C(=O)N1OCc1cc(=O)c(OCc2ccccc2)co1 |
| 251 to 252 °C | O=C1NC(Cc2ccccc2)C(=O)N/C1=C\c1ccc(O)cn1 (stereo unspecified) |
